Structures are written as SMILES.

The values below come from patent US9091678B2, “Method for identifying compounds useful for treating and/or preventing disease-associated bone loss” (priority 2008, dated 2015).

Data set [1] deals with RAW264.7 cells differentiated in osteoclasts. In words: Toxicity test on differentiated osteoclasts (TRAP staining, morphology). Also on record: key: compounds which induce the death of all the osteoclasts after 72 hours (−); compounds which induce morphological anomalies and/or death of part of the osteoclasts (+/−); +: Compounds which do not induce visible modifications of the osteoclasts. Type of data set: cell-based. To be noted: at the concentration given in Table 2, vs 0.5% DMSO control. On the procedure:
The compounds were tested for their toxicity on differentiated osteoclasts at the concentration determined above. RAW264.7 cells differentiated in osteoclasts were allowed to grow for 72 hours in presence of the tested compounds. […] This osteoclasts specific labeling permits to visualize the cell morphology. The cell morphology was then compared to control cells which were allowed to grow in presence of 0.5% DMSO.

Another data set has as its system RAW264.7 cells. In words: Toxicity test on osteoclast precursors. To be noted: RAW264.7 cells grown 72 hours with 10 to 100 μM of compound, vs 0.5% DMSO control. Type of data set: cell-based. The protocol:
The selected compounds were then tested for their toxicity on osteoclast precursors. […] RAW264.7 cells used as osteoclasts […] were allowed to grow for 72 hours with 10 to 100 μM of compound. The growth of the cells was compared to control cells which were grown with 0.5% DMSO.

Take `CCOc1ccc(NC(=O)CSc2nnc(-c3ccc(OC)cc3)o2)cc1` [Compound 3, N-(4-ethoxyphenyl)-2-{[5-(4-methoxyphenyl)-1,3,4-oxadiazol-2-yl]thio}acetamide]: the “Survival at 72 hours” value in data set [1] is “+/−”.
The same measure, in the same setting: the value for `O=C(O)CCC(=O)N1N=C(c2ccc([N+](=O)[O-])cc2)CC1c1ccc(Br)cc1` (stereo not drawn) [Compound 4, 4-[5-(4-bromophenyl)-3-(4-nitrophenyl)-4,5-dihydro-1H-pyrazol-1-yl]-4-oxobutanoic acid] was “−”; that for `Cc1ccc(N(C(=O)C(Cl)(Cl)Cl)C2C=CS(=O)(=O)C2)cc1` (stereo not drawn) [Compound 5, 2,2,2-trichloro-N-(1,1-dioxido-2,3-dihydro-3-thienyl)-N-(4-methylphenyl)acetamide] was “−”; that for `Cc1ccc(/C=C/C(=O)Nc2ccccc2Br)o1` [Compound 6, N-(2-bromophenyl)-3-(5-methyl-2-furyl)acrylamide] was “+”.
The same measure, in the same setting: the value for `O=C(COc1cccc2ccccc12)Nc1ccc2c(c1)OCCO2` [Compound 10, N-(2,3-dihydro-1,4-benzodioxin-6-yl)-2-(1-naphthyloxy)acetamide] was “+”; that for `C=C1c2ccc(C)cc2NC(=O)N1c1cccc(Cl)c1` [Compound 11, 3-(3-chlorophenyl)-7-methyl-4-methylene-3,4-dihydro-2(1H)-quinazolinone] was “−”.
Same read-out and setting: with `O=C(COc1ccccc1Cl)Nc1cc(C(F)(F)F)ccc1Cl` [Compound 12, 2-(2-chlorophenoxy)-N-[2-chloro-5-(trifluoromethyl)phenyl]acetamide] the entry was “+”; with `CCC(=O)Nc1ccc(N2CCN(C(C)=O)CC2)cc1` [Compound 13, N-[4-(4-acetyl-1-piperazinyl)phenyl]propanamide], “+”; with `Cc1cc(=O)n2ccc(CN(C)C)c(O)c2n1` [Compound 14, 8-[(dimethylamino)methyl]-9-hydroxy-2-methyl-4H-pyrido[1,2-a]pyrimidin-4-one], “+”.
As to `O=C1/C(=C\c2ccc([N+](=O)[O-])cc2)SC(=S)N1c1cccc(C(F)(F)F)c1` [Compound 16, 5-(4-nitrobenzylidene)-2-thioxo-3-[3-(trifluoromethyl)phenyl]-1,3-thiazolidin-4-one], in data set [1], the “Survival at 72 hours” value was “+/−”.
On to `CC1=NN(c2cccc(C(=O)O)c2)C(=O)/C1=C\c1cccc(Br)c1` [Compound 18, 3-[4-(3-bromobenzylidene)-3-methyl-5-oxo-4,5-dihydro-1H-pyrazol-1-yl]benzoic acid], for which the “Survival at 72 hours” value in data set [1] is recorded as “−”.
Same read-out and setting: with `O=C(Nc1cccc2nsnc12)c1ccc(Br)o1` [Compound 20, N-2,1,3-benzothiadiazol-4-yl-5-bromo-2-furamide] the entry was “−”.
On the same count and under the same terms, with `O=C(Nc1cc(Cl)cc(Cl)c1)S(=O)(=O)c1ccccc1` [Compound 21, (3,5-dichlorophenyl)[(phenylsulfonyl)carbonyl]amine] the entry was “+/−”; with `CC(=O)N1CCN(c2ccc([N+](=O)[O-])cc2Cl)CC1C` (stereo not drawn) [Compound 22, 1-acetyl-4-(2-chloro-4-nitrophenyl)-2-methylpiperazine], “−”; with `COc1cccc(/C=C2/C=C(c3ccc(C)cc3)OC2=O)c1` [Compound 23, 3-(3-methoxybenzylidene)-5-(4-methylphenyl)-2(3H)-furanone], “−”.
Same read-out and setting: with `O=C(O)/C=C/c1ccc(-c2ccc(Cl)c(Cl)c2)o1` [Compound 24, 3-[5-(3,4-dichlorophenyl)-2-furyl]acrylic acid] the entry was “−”; with `CCOC(=O)C1=C(C)N=c2sc(=Cc3cc(Cl)c(OCC(=O)O)c(OC)c3)c(=O)n2C1c1ccccc1Cl` (stereo not drawn) [Compound 25, (2-chloro-4-{[5-(2-chlorophenyl)-6-(ethoxycarbonyl)-7-methyl-3-oxo-5H-[1,3]thiazolo[3,2-a]pyrimidin-2(3H)-ylidene]methyl}-6-methoxyphenoxy)acetic acid], “−”; with `O=S(=O)(c1cccc2nsnc12)N1CCN(C(c2ccccc2)c2ccccc2)CC1` [Compound 26, 4-{[4-(diphenylmethyl)-1-piperazinyl]sulfonyl}-2,1,3-benzothiadiazole], “−”.
On to `CCOc1ccc(C(=O)Nc2ccc(N3CCN(C(C)=O)CC3)cc2)cc1[N+](=O)[O-]` [Compound 27, N-[4-(4-acetyl-1-piperazinyl)phenyl]-4-ethoxy-3-nitrobenzamide], for which the “Survival at 72 hours” value in data set [1] is “+”.
Same read-out and setting: the value for `CC(C)(C)c1cc(C2Nc3cccc4cccc(c34)N2)cc(C(C)(C)C)c1O` [Compound 30, 2,6-di-tert-butyl-4-(2,3-dihydro-1H-perimidin-2-yl)phenol] was “−”; that for `O=C1c2ccccc2NC(c2c(Cl)cccc2Cl)N1Cc1ccccc1` (stereo not drawn) [Compound 33, 3-benzyl-2-(2,6-dichlorophenyl)-2,3-dihydro-4(1H)-quinazolinone] was “−”; that for `Oc1ccc(-c2nc(-c3ccccc3)c(-c3cccs3)[nH]2)cc1O` [Compound 34, 4-[4-phenyl-5-(2-thienyl)-1H-imidazol-2-yl]-1,2-benzenediol] was “−”.
With `O=Cc1cn(Cc2ccc(Cl)c(Cl)c2)c2ccccc12` [Compound 35, 1-(3,4-dichlorobenzyl)-1H-indole-3-carbaldehyde], the “Concentration μM (optimal concentration which does not affect the growth of the cells)” value in the data set with RAW264.7 cells is 50 µM. For the same molecule, the “Survival at 72 hours” value in data set [1] is “−”.
In the case of `COc1ccc(NC(=O)c2ccc(N(C)S(=O)(=O)c3ccccc3)cc2)cc1OC` [Compound 37, N-(3,4-dimethoxyphenyl)-4-[methyl(phenylsulfonyl)amino]benzamide], the “Survival at 72 hours” value in data set [1] was “−”.
Regarding `O=C(/C=C/c1ccc(F)cc1)Nc1ccccc1Cl` [Compound 40, N-(2-chlorophenyl)-3-(4-fluorophenyl)acrylamide], in data set [1], the “Survival at 72 hours” value is “+”.
As for `Oc1ccccc1C(=S)N1N=C(c2ccccc2)CC1(O)C(F)(F)F` (stereo not drawn) [Compound 42, 1-[(2-hydroxyphenyl)carbonothioyl]-3-phenyl-5-(trifluoromethyl)-4,5-dihydro-1H-pyrazol-5-ol], the “Survival at 72 hours” value in data set [1] is “−”.
On the same count and under the same terms, with `COc1cc([N+](=O)[O-])ccc1N=S(C)C` [Compound 43, 1-[(dimethyl-lambda~4~-sulfanylidene)amino]-2-methoxy-4-nitrobenzene] the entry was “+”; with `COCCOC(=O)c1ccc(NC(=O)c2ccc(C(C)(C)C)cc2)cc1` [Compound 44, 2-methoxyethyl 4-[(4-tert-butylbenzoyl)amino]benzoate], “−”; with `COc1ccccc1NC(=O)/C(=C\c1cccs1)NC(=O)c1ccc(C(C)(C)C)cc1` [Compound 46, 4-tert-butyl-N-[1-{[(2-methoxyphenyl)amino]carbonyl}-2-(2-thienyl)vinyl]benzamide], “+”.
Still for that read-out and setting: the value for `Cc1ccc(/C=C/C(=O)Nc2cccc(Cl)c2Cl)o1` [Compound 47, N-(2,3-dichlorophenyl)-3-(5-methyl-2-furyl)acrylamide] was “−”.
For `O=C1NC(=O)N(c2ccccc2Cl)C(=O)C1=Cc1ccccc1` [Compound 48, 5-benzylidene-1-(2-chlorophenyl)-2,4,6(1H,3H,5H)-pyrimidinetrione], the “Concentration μM (optimal concentration which does not affect the growth of the cells)” value in the data set on RAW264.7 cells stood at 100 µM. Moreover, in data set [1], the “Survival at 72 hours” value was “+”.
For `O=C(Nc1ccccc1)Nc1nnc(C23CC4CC(CC(C4)C2)C3)s1` [Compound 49, N-[5-(1-adamantyl)-1,3,4-thiadiazol-2-yl]-N′-phenylurea], the “Survival at 72 hours” value in data set [1] is reported as “+/−”.
On the same count and under the same terms, with `CCc1nc(-c2ccccc2)nc(C)c1C` [Compound 50, 4-ethyl-5,6-dimethyl-2-phenylpyrimidine] the entry was “+”.
On to `COc1ccc(NC(=O)c2ccccc2Cl)cc1Cl` [Compound 51, 2-chloro-N-(3-chloro-4-methoxyphenyl)benzamide], for which the “Survival at 72 hours” value in data set [1] is “+”.
In the case of `Cc1ccc(OCc2nnc(NC(=O)Nc3ccc(Cl)c(Cl)c3)s2)cc1` [Compound 53, N-(3,4-dichlorophenyl)-N′-{5-[(4-methylphenoxy)methyl]-1,3,4-thiadiazol-2-yl}urea], the “Survival at 72 hours” value in data set [1] was “+/−”.
On to `O=C(/C=C/c1cccc(C(F)(F)F)c1)Nc1ccc(F)cc1` [Compound 54, N-(4-fluorophenyl)-3-[3-(trifluoromethyl)phenyl]acrylamide], for which the “Survival at 72 hours” value in data set [1] is “−”.
Same read-out and setting: the value for `O=C1c2ccccc2NC(c2ccccc2O)N1Cc1ccco1` (stereo not drawn) [Compound 55, 3-(2-furylmethyl)-2-(2-hydroxyphenyl)-2,3-dihydro-4(1H)-quinazolinone] was “−”.
